Our source for the EC50, Emax and Drug metabolism values is ChEMBL document CHEMBL5131517 (ACS Med Chem Lett, 2022).

The target of data set [1] is T1, 5-hydroxytryptamine receptor 2C (Homo sapiens, UniProt P28335).
T1 sequence (P28335 whole entry): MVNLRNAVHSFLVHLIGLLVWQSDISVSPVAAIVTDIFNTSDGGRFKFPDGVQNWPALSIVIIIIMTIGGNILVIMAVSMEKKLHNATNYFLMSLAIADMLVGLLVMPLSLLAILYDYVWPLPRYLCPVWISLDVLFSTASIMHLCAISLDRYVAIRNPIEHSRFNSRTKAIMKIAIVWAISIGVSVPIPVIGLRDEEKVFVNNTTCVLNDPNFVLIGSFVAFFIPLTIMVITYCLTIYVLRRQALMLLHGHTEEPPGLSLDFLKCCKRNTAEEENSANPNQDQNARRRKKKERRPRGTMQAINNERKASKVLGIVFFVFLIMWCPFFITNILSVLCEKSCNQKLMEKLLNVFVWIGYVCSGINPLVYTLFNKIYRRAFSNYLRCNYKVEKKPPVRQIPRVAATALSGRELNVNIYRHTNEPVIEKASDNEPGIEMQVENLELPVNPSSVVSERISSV
The experiment in a line: Agonist activity at human 5HT2C receptor stably expressed in Flp-In-T-REx-293 cells assessed as increase in Gq-mediated calcium flux by Fluo-4 direct dye based FLIPR Tetra assay. The format is functional, cell-based. The conditions noted are these: read-out: EC50. In general terms: Calcium assays in cells follow changes in intracellular calcium, usually with a dye or a luminescent sensor.

For data set [2], the target named is T2, 5-hydroxytryptamine receptor 2A (Homo sapiens, UniProt P28223). The experiment in a line: Agonist activity at human 5HT2A receptor stably expressed in Flp-In-T-REx-293 cells assessed as maximal Gq-mediated calcium flux by Fluo-4 direct dye based FLIPR Tetra assay relative to control. The data set is classed as functional, cell-based.
T2 sequence (P28223 whole entry): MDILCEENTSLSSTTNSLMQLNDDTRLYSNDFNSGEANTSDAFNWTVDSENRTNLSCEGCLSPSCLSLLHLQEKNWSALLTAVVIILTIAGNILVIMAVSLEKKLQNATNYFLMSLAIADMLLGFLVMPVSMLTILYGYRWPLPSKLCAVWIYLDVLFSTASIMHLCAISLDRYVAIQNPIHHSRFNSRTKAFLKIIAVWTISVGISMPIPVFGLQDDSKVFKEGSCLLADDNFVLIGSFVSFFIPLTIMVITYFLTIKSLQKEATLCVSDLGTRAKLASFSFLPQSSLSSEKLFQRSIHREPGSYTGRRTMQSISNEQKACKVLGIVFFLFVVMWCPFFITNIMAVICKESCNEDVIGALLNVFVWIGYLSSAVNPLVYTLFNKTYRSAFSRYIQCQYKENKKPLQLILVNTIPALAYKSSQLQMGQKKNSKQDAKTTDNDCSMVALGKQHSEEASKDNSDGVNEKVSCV
Data set [3] concerns the target T3, 5-hydroxytryptamine receptor 2B (Homo sapiens, UniProt P41595). The experiment in a line: Agonist activity at human 5HT2B receptor stably expressed in Flp-In-T-REx-293 cells assessed as increase in Gq-mediated calcium flux by Fluo-4 direct dye based FLIPR Tetra assay. The data set is classed as functional, cell-based. The conditions noted are these: read-out: EC50.

For data set [4], the target named is T2, 5-hydroxytryptamine receptor 2A. The experiment in a line: Agonist activity at human 5HT2A receptor stably expressed in Flp-In-T-REx-293 cells assessed as increase in Gq-mediated calcium flux by Fluo-4 direct dye based FLIPR Tetra assay. The format is functional, cell-based.
Data set [5] has as its target T3, 5-hydroxytryptamine receptor 2B. Kind of data set: Agonist activity at human 5HT2B receptor stably expressed in Flp-In-T-REx-293 cells assessed as maximal Gq-mediated calcium flux by Fluo-4 direct dye based FLIPR Tetra assay relative to control. The data set is classed as functional, cell-based.
In data set [6] the target is T4, 5-hydroxytryptamine receptor 2C (Homo sapiens) (UniProt P28335).
T4 sequence (whole entry): T1 sequence (P28335 whole entry)
The experiment in a line: Agonist activity at human 5HT2C receptor stably expressed in Flp-In-T-REx-293 cells assessed as maximal Gq-mediated calcium flux by Fluo-4 direct dye based FLIPR Tetra assay relative to control. The conditions noted are these: filed as agonist. The format is functional, cell-based.

Data set [7] is described as follows: Drug metabolism in BALB/c mouse liver microsome S9 fraction assessed as [M+16] metabolite formation prewarmed for 5 mins followed by NADPH addition measured over 1 hrs by LCMS analysis. The data set is classed as ADME. The conditions noted are these: microsomes, 1.083 h, time 65 min. (In general: Liver microsomes are a subcellular fraction often used to study metabolism.)

T3 sequence (P41595 whole entry): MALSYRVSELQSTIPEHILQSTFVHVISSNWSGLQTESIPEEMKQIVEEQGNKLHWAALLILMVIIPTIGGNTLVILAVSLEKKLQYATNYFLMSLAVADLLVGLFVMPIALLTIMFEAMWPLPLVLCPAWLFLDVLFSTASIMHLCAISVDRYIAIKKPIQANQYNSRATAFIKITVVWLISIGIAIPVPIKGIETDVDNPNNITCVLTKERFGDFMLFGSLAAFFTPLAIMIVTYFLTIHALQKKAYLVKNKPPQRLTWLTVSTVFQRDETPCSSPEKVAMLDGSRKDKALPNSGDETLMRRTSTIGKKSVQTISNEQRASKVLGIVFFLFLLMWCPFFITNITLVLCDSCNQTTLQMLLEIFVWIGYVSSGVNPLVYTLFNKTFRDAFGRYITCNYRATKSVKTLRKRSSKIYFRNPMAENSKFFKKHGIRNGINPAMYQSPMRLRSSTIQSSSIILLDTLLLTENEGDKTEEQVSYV

The term EC50 denotes the concentration that produces a half-maximal response. As usually defined, the Emax is the size of the effect at its maximum, as opposed to the concentration needed. As for `Oc1cc(Br)ccc1C1NCCc2c1[nH]c1ccc(F)cc21` (configuration not stated), the values for the EC50 in data set [1], in data set [3] and in data set [4] were 95 nM, 59 nM and 147 nM, respectively. Besides, the Emax turned out to be 98% in data set [2] (filed as agonist), 112% in data set [5] (filed as agonist) and 111% in data set [6].

For RAUWOLFIA SERPENTINA, the Drug metabolism entry in data set [7] was “Metabolite_Detected”.

As to `Oc1c(Cl)cccc1C1NCCc2c1[nH]c1ccc(F)cc21` (configuration not stated), the values for the 50% effective concentration (EC50) in data set [1], in data set [3] and in data set [4] were 78 nM, 88 nM and 273 nM, respectively. In addition, the results for the Emax in data set [2] (filed as agonist), in data set [5] (filed as agonist) and in data set [6] were 65.3%, 96.2% and 99.2%, respectively.

On to `COc1ccc(OC)c(C2NCCc3c2[nH]c2ccc(Cl)cc32)c1` (configuration not stated), for which the concentration giving a half-maximal response (EC50) in data set [1] came to 2690 nM; in data set [3], 416 nM; in data set [4], 1820 nM. The Emax turned out to be 14.4% in data set [2], 32% in data set [5] and 42.4% in data set [6].

With `Oc1cc(Cl)ccc1C1NCCc2c1[nH]c1ccc(F)cc21` (configuration not stated), the results for the 50% effective concentration (EC50) in data set [1], in data set [3] and in data set [4] were 209 nM, 128 nM and 229 nM, respectively. Moreover, the Emax in data set [2] (filed as agonist) came to 73.2%; in data set [5] (filed as agonist), 105%; in data set [6], 107%.

On to `Oc1ccc(O)c(C2NCCc3c2[nH]c2ccc(F)cc32)c1` (configuration not stated), for which the EC50 worked out at 42 nM in data set [1], 25 nM in data set [3] and 72 nM in data set [4]. Moreover, the maximal response (Emax) in data set [2] (filed as agonist) stood at 95.2%; in data set [5] (filed as agonist) it was 102%; in data set [6] it was 120%.

Regarding `COc1ccc(C2NCCc3c2[nH]c2ccc(F)cc32)cc1OC` (configuration not stated), the figures for the EC50 in data set [1], in data set [3] and in data set [4] were 152 nM, 102 nM and 254 nM, respectively. Besides, the Emax in data set [2] (filed as agonist) worked out at 83.2%; in data set [5] (filed as agonist), 89.8%; in data set [6], 103%.

In the case of `Oc1ccc(Br)cc1C1NCCc2c1[nH]c1ccc(Cl)cc21` (configuration not stated), the half-maximal effective concentration (EC50) in data set [1] was 1320 nM; in data set [3] it was 457 nM; in data set [4], 812 nM. The maximum response (Emax) in data set [2] (filed as agonist) amounted to 79.7%; in data set [5] (filed as agonist), 111%; in data set [6] it was 95.2%.

As to `Oc1ccc(Br)cc1C1NCCc2c1[nH]c1ccc(F)cc21` (configuration not stated), the half-maximal effective concentration (EC50) in data set [1] is 376 nM; in data set [3], 338 nM; in data set [4], 1110 nM. The maximal effect (Emax) in data set [2] (filed as agonist) turned out to be 80.8%; in data set [5] (filed as agonist), 111%; in data set [6], 101%.

Consider `COc1ccc(C2NCCc3c2[nH]c2ccc(F)cc32)c(OC)c1` (configuration not stated), for which the EC50 is 159 nM in data set [1], 98 nM in data set [3] and 167 nM in data set [4]. Besides, the maximum response (Emax) in data set [2] (filed as agonist) was determined as 45.6%; in data set [5] (filed as agonist), 91.3%; in data set [6], 100%.

Regarding `Oc1cc(Br)ccc1C1NCCc2c1[nH]c1ccc(Cl)cc21` (configuration not stated), the concentration giving a half-maximal response (EC50) is 794 nM in data set [1], 204 nM in data set [3] and 537 nM in data set [4]. Further, the maximal response (Emax) in data set [2] (filed as agonist) was found to be 94.5%; in data set [5] (filed as agonist) it was 106%; in data set [6], 107%.

Take `Oc1cc(Cl)ccc1C1NCCc2c1[nH]c1ccc(Cl)cc21` (configuration not stated): the EC50 amounted to 47 nM in data set [1], 25 nM in data set [3] and 52 nM in data set [4]. For the same compound, the maximum response (Emax) in data set [2] (filed as agonist) amounted to 98.5%; in data set [5] (filed as agonist) it was 109%; in data set [6] it was 102%.
